We go through 10 compounds from BindingDB's records for doi:10.1021/jm500629e (Mcgill University, 2014).

Structures are written as SMILES.

The target in the assay is T1, Farnesyl pyrophosphate synthase (Homo sapiens, UniProt P14324).
T1 sequence (P14324 whole entry): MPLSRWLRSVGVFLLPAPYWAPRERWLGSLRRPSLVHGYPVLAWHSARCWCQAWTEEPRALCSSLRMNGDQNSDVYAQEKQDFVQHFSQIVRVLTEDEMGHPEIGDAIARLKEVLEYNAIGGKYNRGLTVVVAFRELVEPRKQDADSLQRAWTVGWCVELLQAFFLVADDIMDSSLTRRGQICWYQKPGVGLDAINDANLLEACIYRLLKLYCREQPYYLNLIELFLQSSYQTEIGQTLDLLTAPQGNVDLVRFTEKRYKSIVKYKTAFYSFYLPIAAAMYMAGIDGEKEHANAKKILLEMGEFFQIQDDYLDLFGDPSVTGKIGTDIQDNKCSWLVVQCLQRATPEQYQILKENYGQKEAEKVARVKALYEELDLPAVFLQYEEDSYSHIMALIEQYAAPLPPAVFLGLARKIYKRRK
Description: Inhibition of FPPS (unknown origin).
Broadly, the IC50 is the concentration at which inhibition is half-maximal. Low readings indicate greater potency, high ones weaker potency. Take `Cc1ccc(-c2cc3c(NCC(=O)O)ncnc3s2)cc1`: the half-inhibitory concentration (IC50) is more than 20 µM.
`O=P(O)(O)C(Cc1cccnc1)P(=O)(O)O` [(1-phosphono-2-pyridin-3-yl-ethyl)-phosphonic acid]: the IC50 came to 0.2 µM.
As for `Cc1ccc(-c2cc3c(CCP(=O)(O)O)ncnc3s2)cc1`, the IC50 is 0.2 µM.
The compound `Cc1ccc(-c2cc3c(NCCP(=O)(O)O)ncnc3s2)cc1` had an IC50 of 0.2 µM.
The same measure for `Cc1ccc(-c2cc3c(NC(P(=O)(O)O)P(=O)(O)O)ncnc3s2)cc1`: 0.2 µM; for `Cc1ccc(-c2cc3c(NC(c4ccccc4)P(=O)(O)O)ncnc3s2)cc1Cl` (stereo not given): 1.2 µM.
On to `Cc1ccc(-c2cc3c(NCP(=O)(O)O)ncnc3s2)cc1`, for which the 50% inhibitory concentration (IC50) came out at 4.5 µM.
The same measure for `O=P(O)(O)C(Nc1ncnc2sc(-c3ccc(OC4CC4)cc3)cc12)P(=O)(O)O`: 0.2 µM.
For `Cc1ccc(-c2cc3c(NCP(=O)(O)O)ncnc3s2)cc1Cl`, 3.3 µM corresponded to half-maximal inhibition (IC50).
As for `O=P(O)(O)CCc1cccnc1`, it took 0.2 µM to reach half-maximal inhibition (IC50).
